In ChEMBL document CHEMBL1123622, “Quantitative structure-activity relationships of the bitter thresholds of amino acids, peptides, and their derivatives” (J Med Chem, 1987):
Non-standard residues stand in square brackets, D forms with d. Residues, ends and D or L forms follow the SMILES beside them.

Experiments:
[1] = Bitter threshold value; B denotes 'bitter'; assay type: functional
[2] = Bitter threshold value; NI denotes'Not identifiable (Citrous or fruity taste)'; assay type: functional

| Compound | Log 1/T [1] | Log 1/T [2] |
| --- | --- | --- |
| CC(C)C[C@H](NC(=O)[C@H](C)NC(=O)[C@H](C)N)C(=O)O (H-Ala-Ala-Leu-OH) | Bitter | – |
| CC[C@H](C)[C@H](NC(=O)[C@H](C)N)C(=O)N[C@@H](C)C(=O)O (H-Ala-Ile-Ala-OH) | Bitter | – |
| CC(C)C[C@H](NC(=O)[C@H](C)NC(=O)CN)C(=O)O (H-Gly-Ala-Leu-OH) | Bitter | – |
| O=C(O)CNC(=O)[C@@H]1CCCN1 (H-Pro-Gly-OH) | – | Not identifiable |
| CC(C)[C@H](NC(=O)[C@@H]1CCCN1)C(=O)O (H-Pro-Val-OH) | – | Not identifiable |
| CC(C)C[C@@H](N)C(=O)NCC(=O)O (H-[dL]-Gly-OH) | Bitter | – |
